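A five-concentration, 48-hour dose response in 96-well plates underlies each endpoint, interpolated linearly between surrounding concentrations. Abbreviation: GI50, concentration required for 50% inhibition of growth. TGI is the concentration that stops growth completely.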
Assays:
Assay in all cases: growth of human tumour cells (NCI), 48 h
HOP-92 NSCLC = system: HOP-92 NSCLC
HCC-2998 colon = system: HCC-2998 colon
MDA-MB-231 breast = system: MDA-MB-231 breast
SF-539 CNS = system: SF-539 CNS
MCF7 breast = system: MCF7 breast
NCI-H460 lung = system: NCI-H460 lung
KM12 colon = system: KM12 colon
MDA-MB-435 = system: MDA-MB-435
RPMI-8226 leukemia = system: RPMI-8226 leukemia
OVCAR-4 ovarian = system: OVCAR-4 ovarian
NCI-H226 lung = system: NCI-H226 lung
SK-MEL-28 melanoma = system: SK-MEL-28 melanoma
DU-145 prostate = system: DU-145 prostate
OVCAR-5 ovarian = system: OVCAR-5 ovarian
SF-295 CNS = system: SF-295 CNS
SF-268 CNS = system: SF-268 CNS
LOX IMVI melanoma = system: LOX IMVI melanoma
UO-31 renal = system: UO-31 renal
ACHN renal = system: ACHN renal
MDA-MB-468 breast = system: MDA-MB-468 breast
U251 CNS = system: U251 CNS
COLO 205 colon = system: COLO 205 colon
HS 578T breast = system: HS 578T breast
SNB-19 CNS = system: SNB-19 CNS
SR leukemia = system: SR leukemia
UACC-257 melanoma = system: UACC-257 melanoma
BT-549 breast = system: BT-549 breast
SK-MEL-2 melanoma = system: SK-MEL-2 melanoma
TK-10 renal = system: TK-10 renal
MOLT-4 leukemia = system: MOLT-4 leukemia
M14 melanoma = system: M14 melanoma
SNB-75 CNS = system: SNB-75 CNS
UACC-62 melanoma = system: UACC-62 melanoma
CAKI-1 renal = system: CAKI-1 renal
HL-60(TB) leukemia = system: HL-60(TB) leukemia
K-562 leukemia = system: K-562 leukemia
MALME-3M melanoma = system: MALME-3M melanoma
OVCAR-8 ovarian = system: OVCAR-8 ovarian
A498 renal = system: A498 renal
CCRF-CEM leukemia = system: CCRF-CEM leukemia
HOP-62 NSCLC = system: HOP-62 NSCLC
SK-OV-3 ovarian = system: SK-OV-3 ovarian
IGROV1 ovarian = system: IGROV1 ovarian
NCI/ADR-RES ovarian = system: NCI/ADR-RES ovarian
HCT-15 colon = system: HCT-15 colon
SK-MEL-5 melanoma = system: SK-MEL-5 melanoma
SN12C renal = system: SN12C renal
PC-3 prostate = system: PC-3 prostate
OVCAR-3 ovarian = system: OVCAR-3 ovarian
RXF 393 renal = system: RXF 393 renal
EKVX NSCLC = system: EKVX NSCLC
T-47D breast = system: T-47D breast
786-0 renal = system: 786-0 renal
SW-620 colon = system: SW-620 colon

`COc1ccc2[nH]c(O)c(N=NC(=O)COc3ccc(NC(=O)Nc4ccc(Cl)c(Cl)c4)cc3)c2c1` gave a GI50 (HOP-92 NSCLC) of 615 nM, a TGI (HOP-92 NSCLC) of 2630 nM and a GI50 (HCC-2998 colon) of 2970 nM. The TGI (HCC-2998 colon) was 15.6 µM, the GI50 (MDA-MB-231 breast) was 1460 nM and the TGI (MDA-MB-231 breast) was 3.55 µM. For the same compound, the GI50 (SF-539 CNS) was 767 nM, the TGI (SF-539 CNS) was 2090 nM and the GI50 (MCF7 breast) was 488 nM. For the same compound, the TGI (MCF7 breast) was 6.05 µM, the GI50 (NCI-H460 lung) was 437 nM and the TGI (NCI-H460 lung) was 1490 nM. The GI50 (KM12 colon) was 1290 nM, the TGI (KM12 colon) was 7.64 µM and the GI50 (MDA-MB-435) was 605 nM. The TGI (MDA-MB-435) was 2360 nM, the GI50 (RPMI-8226 leukemia) was 2710 nM and the TGI (RPMI-8226 leukemia) was > 100 µM. It also gave a GI50 (OVCAR-4 ovarian) of 691 nM, a TGI (OVCAR-4 ovarian) of 2740 nM and a GI50 (NCI-H226 lung) of 1070 nM. The TGI (NCI-H226 lung) was 3.45 µM, the GI50 (SK-MEL-28 melanoma) was 1630 nM and the TGI (SK-MEL-28 melanoma) was 4.05 µM. It also gave a GI50 (DU-145 prostate) of 493 nM, a TGI (DU-145 prostate) of 1910 nM and a GI50 (OVCAR-5 ovarian) of 1530 nM. The TGI (OVCAR-5 ovarian) was 6 µM, the GI50 (SF-295 CNS) was 1910 nM and the TGI (SF-295 CNS) was 5.22 µM. It also gave a GI50 (SF-268 CNS) of 1640 nM, a TGI (SF-268 CNS) of 10.2 µM and a GI50 (LOX IMVI melanoma) of 309 nM. For the same compound, the TGI (LOX IMVI melanoma) was 1030 nM, the GI50 (UO-31 renal) was 31.3 µM and the TGI (UO-31 renal) was > 100 µM. It also gave a GI50 (ACHN renal) of 2180 nM, a TGI (ACHN renal) of 13.2 µM and a GI50 (MDA-MB-468 breast) of 1170 nM. For the same compound, the TGI (MDA-MB-468 breast) was 3.01 µM, the GI50 (U251 CNS) was 3.37 µM and the TGI (U251 CNS) was 14.9 µM. It also gave a GI50 (COLO 205 colon) of 1120 nM, a TGI (COLO 205 colon) of 4.21 µM and a GI50 (HS 578T breast) of 1870 nM. It also gave a TGI (HS 578T breast) of 5.52 µM, a GI50 (SNB-19 CNS) of 3.33 µM and a TGI (SNB-19 CNS) of 14.2 µM. It also gave a GI50 (SR leukemia) of 1040 nM, a TGI (SR leukemia) of 18.4 µM and a GI50 (UACC-257 melanoma) of 3.36 µM. It also gave a TGI (UACC-257 melanoma) of 15.9 µM, a GI50 (BT-549 breast) of 2010 nM and a TGI (BT-549 breast) of 4.47 µM. For the same compound, the GI50 (SK-MEL-2 melanoma) was 10.4 µM, the TGI (SK-MEL-2 melanoma) was 23 µM and the GI50 (TK-10 renal) was 3.79 µM. The TGI (TK-10 renal) was 14.6 µM, the GI50 (MOLT-4 leukemia) was 1610 nM and the TGI (MOLT-4 leukemia) was 17.9 µM. The GI50 (M14 melanoma) was 992 nM, the TGI (M14 melanoma) was 4.57 µM and the GI50 (SNB-75 CNS) was 1610 nM. The TGI (SNB-75 CNS) was 3.98 µM, the GI50 (UACC-62 melanoma) was 2860 nM and the TGI (UACC-62 melanoma) was 12.7 µM. For the same compound, the GI50 (CAKI-1 renal) was 2390 nM, the TGI (CAKI-1 renal) was 11 µM and the GI50 (HL-60(TB) leukemia) was 6.71 µM. It also gave a TGI (HL-60(TB) leukemia) of 25.1 µM, a GI50 (K-562 leukemia) of 575 nM and a TGI (K-562 leukemia) of 19.7 µM. The GI50 (MALME-3M melanoma) was 452 nM, the TGI (MALME-3M melanoma) was 1680 nM and the GI50 (OVCAR-8 ovarian) was 2330 nM. It also gave a TGI (OVCAR-8 ovarian) of 15.7 µM, a GI50 (A498 renal) of 1840 nM and a TGI (A498 renal) of 5.4 µM. It also gave a GI50 (CCRF-CEM leukemia) of 822 nM, a TGI (CCRF-CEM leukemia) of 19.1 µM and a GI50 (HOP-62 NSCLC) of 2880 nM. The TGI (HOP-62 NSCLC) was 14.1 µM, the GI50 (SK-OV-3 ovarian) was 5.1 µM and the TGI (SK-OV-3 ovarian) was 17.5 µM. For the same compound, the GI50 (IGROV1 ovarian) was 1910 nM, the TGI (IGROV1 ovarian) was 6.35 µM and the GI50 (NCI/ADR-RES ovarian) was 25.4 µM. For the same compound, the TGI (NCI/ADR-RES ovarian) was > 100 µM, the GI50 (HCT-15 colon) was 31.6 µM and the TGI (HCT-15 colon) was > 100 µM. For the same compound, the GI50 (SK-MEL-5 melanoma) was 1990 nM, the TGI (SK-MEL-5 melanoma) was 5.36 µM and the GI50 (SN12C renal) was 1100 nM. For the same compound, the TGI (SN12C renal) was 3.45 µM, the GI50 (PC-3 prostate) was 1420 nM and the TGI (PC-3 prostate) was 4.72 µM. For the same compound, the GI50 (OVCAR-3 ovarian) was 696 nM, the TGI (OVCAR-3 ovarian) was 2280 nM and the GI50 (RXF 393 renal) was 1050 nM. For the same compound, the TGI (RXF 393 renal) was 2900 nM, the GI50 (EKVX NSCLC) was 3.89 µM and the TGI (EKVX NSCLC) was 25.9 µM. It also gave a GI50 (T-47D breast) of 1460 nM, a TGI (T-47D breast) of 3.26 µM and a GI50 (786-0 renal) of 1070 nM. The TGI (786-0 renal) was 2750 nM, the GI50 (SW-620 colon) was 441 nM and the TGI (SW-620 colon) was 1370 nM.
